{"source": "patent US11465995B2", "about": "“Crystal and salt forms of tricyclic compound and preparation process thereof” (SHIJIAZHUANG SAGACITY NEW DRUG DEVELOPMENT COMPANY, LTD., priority 2018, dated 2022)", "key": {"blood lymphocytes": {"tested_on": "blood lymphocytes", "test": "Effects of single oral administration on blood lymphocytes in rats", "assay_type": "in vivo, SD rats", "details": "for Percentage of lymphocytes in white blood cells in a unit volume of blood (%) / Rate of change of lymphocytes in blood after administration (%): mean ± SEM", "procedure": "Normal SPF grade male SD rats were administered by single oral gavage. The experiment contained five groups: the vehicle control group, the reference compound Ozanimod group, Compound 1-0.3 mg/kg dose group, Compound 1-1.0 mg/kg dose group, Compound 1-3 mg/kg dose group. Blood was collected 0.5 h before administration and 4, 8, 24 h after administration, and anticoagulated with 10% K2-EDTA. The anticoagulated blood sample was placed in 4° C. environment, diluted 1:4 with normal saline, and quickly tested with a hematology analyzer to calculate the number of lymphocytes per liter of blood and the percentage in the total white blood cells. Graphpad prism 6.0 software was used to calculate the mean±standard error, and the two-way ANOVA test was used to test the significance of the difference. When p<0.05, there was a significant difference between two groups."}, "S1P1 receptor": {"molecular_target": "T1, S1P1 receptor (Homo sapiens, UniProt P21453)", "T1 construct": "expressed in transfected cells", "T1 sequence (P21453 whole entry)": "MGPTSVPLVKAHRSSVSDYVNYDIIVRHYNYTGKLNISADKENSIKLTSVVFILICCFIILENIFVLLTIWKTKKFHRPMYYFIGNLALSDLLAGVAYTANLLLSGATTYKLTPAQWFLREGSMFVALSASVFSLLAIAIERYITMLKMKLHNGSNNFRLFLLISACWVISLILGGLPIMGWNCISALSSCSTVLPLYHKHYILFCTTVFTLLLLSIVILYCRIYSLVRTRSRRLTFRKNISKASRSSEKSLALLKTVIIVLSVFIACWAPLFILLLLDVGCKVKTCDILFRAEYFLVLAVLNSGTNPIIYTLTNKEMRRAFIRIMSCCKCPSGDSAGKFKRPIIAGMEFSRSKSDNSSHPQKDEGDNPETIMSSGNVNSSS", "test": "S1P1 receptor agonistic activity test (PathHunter cell line)", "assay_type": "cell-based", "details": "agonist mode", "procedure": "I. Cells Treatment • 1. PathHunter cell line was thawed according to standard procedures. • 2. The cells were inoculated in 20 μl 384-well microplates and incubated at 37° C. for appropriate time.\nII. Agonist • 1. For the agonist assay, the cells were incubated with the testing sample to induce the reaction. • 2. The stock solution had been diluted 5 times with the buffer. • 3. 5 μl of 5-fold dilution was added into the cells, which were incubated at 37° C. for 90-180 min with the vehicle concentration of 1%.\nIII. Signal Detection • 1. 12.5 μl or 15 μl of PathHunter detection reagent at a volume ratio of 50% was added in one portion, then incubation at room temperature was performed for 1 h to generate detection signal. • 2. The PerkinElmer Envision™ instrument was used to read the microplate for chemiluminescence signal detection.\nIV. Data Analysis • 1. CBIS data analysis kit was used to analyze the activity of the compound. • 2. Calculation formula: % Activity=100%×(average RLU of testing sample−average RLU of vehicle)/(average RLU of maximum control ligand−average RLU of vehicle) The results were shown in Table 3."}, "[1]": {"tested_on": "TNBS-induced acute infectious bowel disease (IBD) model", "test": "Pharmacodynamic test on TNBS-induced acute infectious bowel disease (IBD) model in female SD rats", "assay_type": "in vivo", "parameters": "Ulcer score / Inflammation score / Total injury score: scale not given here", "details": "for Injury area (cm^2) / Ulcer area (cm^2) / Inflammation score / Total injury score / Ulcer score: mean ± sem; for Inflammation score / Total injury score / Ulcer score: colon pathological test", "procedure": "Female SD rats were divided into 7 groups, that is, model group, prednisolone-10 mg/kg group, Ozanimod-0.3 mg/kg group, Ozanimod-1.0 mg/kg group, Compound 1-0.1 mg/kg group, Compound 1-0.3 mg/kg group, Compound 1-0.6 mg/kg group. All animals were deeply anesthetized with pentobarbital sodium, and TNBS-50% alcohol solution was inserted into the intestinal cavity from the anus for modeling. The animal's anus was squeezed, and the animal was allowed to stand upside down for 5 min. The animals were returned to the cage after assured to be leak free.\nThe test compounds were administered orally 1 h after modeling, once a day for 7 days. The model group was given an equal volume of drug vehicle. The animals were weighed daily before administration of the test compound and were monitored for daily fecal traits and given clinical observation scores. The day after the last administration, all animals were euthanized. The colons were collected (anal to nodular part), the length and weight of the colons were measured, and the gross anatomical scores of the lesion sizes was taken. The gross anatomical images of the colon lesions were recorded, and the tissues were fixed in 10% neutral formalin solution and were subjected to histopathological analysis."}, "[2]": {"test": "Pharmacokinetic evaluation in SD rats", "assay_type": "in vivo", "details": "Sprague Dawley, rat, plasma, 3 mg/kg, male, intravenous injection and oral administration, Ozanimod at 3 mpk", "procedure": "This Example is provided to test pharmacokinetics of compounds in SD rats.\nMaterials: Sprague Dawley rats (male, 200-300 g, 7-9 weeks, Shanghai SLAC)\nProcedures: The rodent pharmacokinetic characteristics of the compound after intravenous injection and oral administration were tested according to standard protocol. In the test, the candidate compound was formulated as a clear solution, and the rats were given a single intravenous injection and oral administration. The intravenous and oral vehicles were a hydroxypropyl β cyclodextrin aqueous solution in a certain proportion or normal saline solution. The whole blood sample within 24 h was collected, centrifuged at 3000 g for 15 min, and the supernatant was separated to give the plasma sample. 4 volumes of acetonitrile solution containing internal standard was added to precipitate protein and after centrifugation the supernatant was collected and added with equal volume of water. After further centrifugation, the supernatant was used for injection. Quantitative analysis of blood drug concentration was done by LC-MS/MS analysis method and pharmacokinetic parameters were calculated, such as Cmax, Tmax, clearance, half-life, area under the curve of drug concentration-time, bioavailability, etc."}, "[3]": {"details": "0.1 mg/kg oral once a day for 7 days"}, "[4]": {"details": "0.3 mg/kg oral once a day for 7 days"}, "[5]": {"details": "0.6 mg/kg oral once a day for 7 days"}}, "note": "Several values for one entry are separate records, joined by “and”; a condition that tells them apart may be missing. Equal entries are not always repeated.", "data": [{"smiles": "CC(C)Oc1ccc(-c2nc(-c3cccc4c3C[C@@H]3CC(=O)N(CCO)[C@H]43)no2)cc1C#N", "note": "(single isomer, unassigned) [Compound 1]", "values": [{"measurement": "Percentage of lymphocytes in white blood cells in a unit volume of blood (%)", "setting": "blood lymphocytes; 0.3 mg/kg single oral, 4 h", "result": "52.08 ± 3.35^&&& %"}, {"measurement": "Rate of change of lymphocytes in blood after administration (%)", "setting": "blood lymphocytes; 0.3 mg/kg single oral, 4 h, vs same group before administration", "result": "−59.57 ± 2.01", "unit": "%"}, {"measurement": "maximum decreasing rate of the number of blood lymphocytes", "setting": "blood lymphocytes; 0.3 mg/kg single oral, 8 h", "result": 66.87, "unit": "%"}, {"measurement": "Percentage of lymphocytes in white blood cells in a unit volume of blood (%)", "setting": "blood lymphocytes; 0.3 mg/kg single oral, 8 h", "result": "46.71 ± 3.72^*#&&&& %"}, {"measurement": "Rate of change of lymphocytes in blood after administration (%)", "setting": "blood lymphocytes; 0.3 mg/kg single oral, 8 h", "result": "−66.87 ± 1.97", "unit": "%"}, {"measurement": "blood lymphocyte decreasing rate", "setting": "blood lymphocytes; 0.3 mg/kg single oral, 24 h", "result": "−44.98", "unit": "%"}, {"measurement": "Percentage of lymphocytes in white blood cells in a unit volume of blood (%)", "setting": "blood lymphocytes; 0.3 mg/kg single oral, 24 h", "result": "63.86 ± 1.70", "unit": "%"}, {"measurement": "Rate of change of lymphocytes in blood after administration (%)", "setting": "blood lymphocytes; 0.3 mg/kg single oral, 24 h", "result": "44.98 ± 16.62", "unit": "%"}, {"measurement": "Percentage of lymphocytes in white blood cells in a unit volume of blood (%)", "setting": "blood lymphocytes; 0.3 mg/kg single oral, −0.5 h (before administration)", "result": "59.12 ± 2.19", "unit": "%"}, {"measurement": "Percentage of lymphocytes in white blood cells in a unit volume of blood (%)", "setting": "blood lymphocytes; 1.0 mg/kg single oral, 4 h", "result": "36.82 ± 2.33^****$$$ %"}, {"measurement": "Rate of change of lymphocytes in blood after administration (%)", "setting": "blood lymphocytes; 1.0 mg/kg single oral, 4 h", "result": "−71.25 ± 1.93", "unit": "%"}, {"measurement": "maximum decreasing rate of the number of blood lymphocytes", "setting": "blood lymphocytes; 1.0 mg/kg single oral, 8 h", "result": 83.09, "unit": "%"}, {"measurement": "Percentage of lymphocytes in white blood cells in a unit volume of blood (%)", "setting": "blood lymphocytes; 1.0 mg/kg single oral, 8 h", "result": "29.89 ± 2.56^****$$$$ %"}, {"measurement": "Rate of change of lymphocytes in blood after administration (%)", "setting": "blood lymphocytes; 1.0 mg/kg single oral, 8 h", "result": "−83.09 ± 1.25", "unit": "%"}, {"measurement": "blood lymphocyte decreasing rate", "setting": "blood lymphocytes; 1.0 mg/kg single oral, 24 h", "result": 0.22, "unit": "%"}, {"measurement": "Percentage of lymphocytes in white blood cells in a unit volume of blood (%)", "setting": "blood lymphocytes; 1.0 mg/kg single oral, 24 h", "result": "61.62 ± 1.61", "unit": "%"}, {"measurement": "Rate of change of lymphocytes in blood after administration (%)", "setting": "blood lymphocytes; 1.0 mg/kg single oral, 24 h", "result": "−0.22 ± 6.87^**#$$ %"}, {"measurement": "Percentage of lymphocytes in white blood cells in a unit volume of blood (%)", "setting": "blood lymphocytes; 1.0 mg/kg single oral, −0.5 h (before administration)", "result": "59.49 ± 1.01", "unit": "%"}, {"measurement": "Percentage of lymphocytes in white blood cells in a unit volume of blood (%)", "setting": "blood lymphocytes; 3.0 mg/kg single oral, 4 h", "result": "34.03 ± 3.81^****#$$$$ %"}, {"measurement": "Rate of change of lymphocytes in blood after administration (%)", "setting": "blood lymphocytes; 3.0 mg/kg single oral, 4 h", "result": "−78.97 ± 0.91", "unit": "%"}, {"measurement": "maximum decreasing rate of the number of blood lymphocytes", "setting": "blood lymphocytes; 3.0 mg/kg single oral, 8 h", "result": 85.92, "unit": "%"}, {"measurement": "Percentage of lymphocytes in white blood cells in a unit volume of blood (%)", "setting": "blood lymphocytes; 3.0 mg/kg single oral, 8 h", "result": "26.19 ± 2.81^****$$$$ %"}, {"measurement": "Rate of change of lymphocytes in blood after administration (%)", "setting": "blood lymphocytes; 3.0 mg/kg single oral, 8 h", "result": "−85.92 ± 1.26", "unit": "%"}, {"measurement": "blood lymphocyte decreasing rate", "setting": "blood lymphocytes; 3.0 mg/kg single oral, 24 h", "result": 55.15, "unit": "%"}, {"measurement": "Percentage of lymphocytes in white blood cells in a unit volume of blood (%)", "setting": "blood lymphocytes; 3.0 mg/kg single oral, 24 h", "result": "57.05 ± 2.49", "unit": "%"}, {"measurement": "Rate of change of lymphocytes in blood after administration (%)", "setting": "blood lymphocytes; 3.0 mg/kg single oral, 24 h", "result": "−55.15 ± 3.32^****$$$$& %"}, {"measurement": "Percentage of lymphocytes in white blood cells in a unit volume of blood (%)", "setting": "blood lymphocytes; 3.0 mg/kg single oral, −0.5 h (before administration)", "result": "62.35 ± 2.26", "unit": "%"}, {"measurement": "EC50", "setting": "S1P1 receptor", "result": "< 10", "unit": "nM"}, {"measurement": "Injury area (cm^2)", "setting": "[1]; [3]", "result": "6.09 ± 0.94", "unit": "cm^2"}, {"measurement": "Ulcer area (cm^2)", "setting": "[1]; [3]", "result": "2.42 ± 0.66", "unit": "cm^2"}, {"measurement": "Injury area (cm^2)", "setting": "[1]; [4]", "result": "5.34 ± 0.90", "unit": "cm^2"}, {"measurement": "Ulcer area (cm^2)", "setting": "[1]; [4]", "result": "2.18 ± 0.84", "unit": "cm^2"}, {"measurement": "Injury area (cm^2)", "setting": "[1]; [5]", "result": "3.42 cm^2 and 3.42 ± 0.73* cm^2"}, {"measurement": "Ulcer area (cm^2)", "setting": "[1]; [5]", "result": "0.94 ± 0.55", "unit": "cm^2"}, {"measurement": "symptoms of colon ulcers and edema (dissection at the end of the experiment)", "setting": "[1]; 0.6 mg/kg, compared to the model group", "result": "reduced compared to the model group"}, {"measurement": "Inflammation score", "setting": "[1]; 0.1 mg/kg", "result": "3.57 ± 0.20"}, {"measurement": "Total injury score", "setting": "[1]; 0.1 mg/kg", "result": "6.14 ± 0.40"}, {"measurement": "Ulcer score", "setting": "[1]; 0.1 mg/kg", "result": "2.57 ± 0.20"}, {"measurement": "Inflammation score", "setting": "[1]; 0.3 mg/kg", "result": "3.57 ± 0.37"}, {"measurement": "Total injury score", "setting": "[1]; 0.3 mg/kg", "result": "6.14 ± 0.63"}, {"measurement": "Ulcer score", "setting": "[1]; 0.3 mg/kg", "result": "2.57 ± 0.30"}, {"measurement": "clearance", "setting": "[2]", "result": 11.5, "unit": "mL/min/kg"}, {"measurement": "bioavailability", "setting": "[2]; read-out: Bioavailability F (%)", "result": 85.8, "unit": "%"}, {"measurement": "AUC", "setting": "[2]; read-out: Concentration Integration AUC", "result": 6.83, "unit": "µM·h"}, {"measurement": "half-life", "setting": "[2]; read-out: Half-life T1/2 (converted)", "result": 3.46, "unit": "h"}]}]}
